# Laboratory results: patent EP0326331B1, “Substituted quinolines and cinnolines” (Dow AgroSciences LLC, priority 1988, dated 1989)
# Read-outs that look alike come from different tables or passages of the source.
# Tests used:
# Assay type in all cases: in vivo
# [1] = tested on: Erysiphe graminis tritici (powdery mildew); experiment: Test 1 greenhouse foliar spray screen, powdery mildew on wheat; conditions: for POWD MDEW: disease control rating, foliar spray on wheat, 400 ppm (+++ at 100 ppm); for pest or weed control at 400 ppm: Blumeria graminis, foliar, Test 1, foliar spray on wheat, disease control rating at 400 ppm / 100 ppm, read-out: POWD MDEW
# [2] = tested on: Pyricularia oryzae (rice blast); experiment: whole plant or invertebrate; conditions: for RICE BLAST: disease control rating, foliar spray on rice, 400 ppm (+++ at 100 ppm); for pest or weed control at 400 ppm: Pyricularia oryzae, foliar, read-out: RICE BLAST, Test 1, foliar spray on rice, disease control rating at 400 ppm / 100 ppm
# [3] = tested on: Puccinia recondita tritici (leaf rust); experiment: Test 1 greenhouse foliar spray screen, leaf rust on wheat; conditions: for LEAF RUST: disease control rating, foliar spray on wheat, 400 ppm (+++ at 100 ppm); for pest or weed control at 400 ppm: Puccinia recondita, foliar, Test 1, foliar spray on wheat, disease control rating at 400 ppm / 100 ppm
# [4] = tested on: Botrytis cinerea (gray mold); experiment: Test 1 greenhouse foliar spray screen, gray mold on grape berries; conditions: for GRAY MOLD: disease control rating, spray on grape berries, 400 ppm (+++ at 100 ppm); for pest or weed control at 400 ppm: Botrytis cinerea, foliar, Test 1, spray on grape berries, disease control rating at 400 ppm / 100 ppm
# [5] = tested on: Pseudoperonospora cubensis (downy mildew); experiment: Test 1 greenhouse foliar spray screen, downy mildew on squash; conditions: for DOWN MDEW: disease control rating, foliar spray on squash, 400 ppm (+++ at 100 ppm); for pest or weed control at 400 ppm: Pseudoperonospora cubensis, foliar, Test 1, foliar spray on squash, disease control rating at 400 ppm / 100 ppm, read-out: DOWN MDEW
# [6] = tested on: Venturia inaequalis (apple scab); experiment: Test 1 greenhouse foliar spray screen, apple scab on apple seedling; conditions: disease control rating, foliar spray on apple seedling, 400 ppm (+++ at 100 ppm)
# [7] = tested on: Septoria tritici (leaf blotch); experiment: Test 1 greenhouse foliar spray screen, leaf blotch on wheat; conditions: disease control rating, foliar spray on wheat, 400 ppm (+++ at 100 ppm)
# [8] = tested on: southern armyworm (Spodopetra eridania Cramer); experiment: Mite/insect screen, SAW; conditions: Spodoptera eridania, percent mortality, read-out: SAW RESULTS %; for mortality at 400 ppm: rate 400 ppm
# Summary of the method: (§1)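 Read-out: percent mortality after standard exposure periods. Test solutions were water dilutions of compound dissolved in acetone/alcohol (50:50) with emulsifier blends; leaves were sprayed to runoff on both surfaces and air-dried for one hour before exposure.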
# [9] = tested on: Twospotted spider mites (Tetranychus urticae Koch); experiment: Mite/insect screen, SM; conditions: Tetranychus urticae, percent mortality, read-out: SM RESULTS %; for mortality at 400 ppm: rate 400 ppm
# Summary of the method: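 Foliar spray to runoff (10 psi), 1 h drying; aqueous dilutions from acetone/alcohol emulsifier stock. Mortality (%) after standard exposure.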
# [10] = tested on: melon aphids (Aphis gossypii Glover); experiment: Mite/insect screen, MA; conditions: Aphis gossypii, percent mortality, read-out: MA RESULTS %; for mortality at 400 ppm: rate 400 ppm
# Summary of the method: as §1
# corn rootworm = experiment: Mite/insect screen, CRW; conditions: percent mortality, read-out: CRW RESULTS %; for mortality at 24 ppm: CRW rate 24.00 ppm
# Summary of the method: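 Read-out: % mortality after standard exposure. Formulation: acetone/alcohol (50:50) with emulsifiers at 23 g and 13 g per liter, water-diluted to final test levels.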
# [11] = foliar, rate 200 ppm, foliar spray on squash
SMILES,POWD MDEW [1],RICE BLAST [2],LEAF RUST [3],GRAY MOLD [4],DOWN MDEW [5],APPL SCAB [6],LEAF BLOT [7],"mortality at 200 ppm ([8]; SAW, SM & MA RATE 200 PPM) [%]","mortality at 200 ppm ([9]; SAW, SM & MA RATE 200 PPM) [%]","mortality at 200 ppm ([10]; SAW, SM & MA RATE 200 PPM) [%]",mortality at 12 ppm (corn rootworm; CRW RATE 12.00 PPM) [%],pest or weed control at 400 ppm [1] [%],pest or weed control at 400 ppm [2] [%],pest or weed control at 400 ppm [3] [%],pest or weed control at 400 ppm [4] [%],pest or weed control at 400 ppm [5] [%],"mortality at 200 ppm [8, 11] [%]","mortality at 400 ppm ([8]; foliar, foliar spray on squash) [%]","mortality at 200 ppm [9, 11] [%]","mortality at 400 ppm ([9]; foliar, foliar spray on squash) [%]",further results
"COc1ccc2nccc(NCCc3ccccc3)c2c1 [Example 1, 6-methoxy-N-(2-phenylethyl)-4-quinolineamine]",+ (20-89% control at 400 ppm),+ (20-89% control at 400 ppm),+ (20-89% control at 400 ppm),+ (20-89% control at 400 ppm),++ (90-100% control at 400 ppm),- (0-19% control at 400 ppm),- (0-19% control at 400 ppm),0,0,0,0,,,,,,,,,,
"CCc1ccc2nccc(NCCc3ccccc3)c2c1 [Example 3, 6-ethyl-N-(2-phenylethyl)-4-quinolinamine]",- (0-19% control at 400 ppm),++ (90-100% control at 400 ppm),+ (20-89% control at 400 ppm),- (0-19% control at 400 ppm),+++ (90-100% control at 100 ppm),- (0-19% control at 400 ppm),- (0-19% control at 400 ppm),0,0,0,0,,,,,,,,,,
"CCN(CCc1ccccc1)c1ccnc2ccccc12 [Example 4, N-ethyl-N-(2-phenylethyl)-4-quinolinamine]",+ (20-89% control at 400 ppm),+ (20-89% control at 400 ppm),++ (90-100% control at 400 ppm),- (0-19% control at 400 ppm),++ (90-100% control at 400 ppm),- (0-19% control at 400 ppm),- (0-19% control at 400 ppm),0,0,0,0,,,,,,,,,,
"Cc1cc(NCCc2ccccc2)c2ccccc2n1 [Example 6, 2-methyl-N-(2-phenylethyl)-4-quinolinamine]",++ (90-100% control at 400 ppm),+ (20-89% control at 400 ppm),+ (20-89% control at 400 ppm),+ (20-89% control at 400 ppm),++ (90-100% control at 400 ppm),- (0-19% control at 400 ppm),- (0-19% control at 400 ppm),0,0,0,0,,,,,,,,,,
"FC(F)(F)c1ccc2c(NCCc3ccccc3)ccnc2c1 [Example 17, N-(2-phenylethyl)-7-(trifluoromethyl)-4-quinolinamine]",++ (90-100% control at 400 ppm),+ (20-89% control at 400 ppm),++ (90-100% control at 400 ppm),- (0-19% control at 400 ppm),++ (90-100% control at 400 ppm),- (0-19% control at 400 ppm),- (0-19% control at 400 ppm),0,0,0,0,,,,,,,,,,
"Brc1ccc(CCNc2ccnc3ccccc23)cc1 [Example 18, N-[2-(4-bromophenyl)ethyl]-4-quinolinamine]",+ (20-89% control at 400 ppm),++ (90-100% control at 400 ppm),++ (90-100% control at 400 ppm),+ (20-89% control at 400 ppm),++ (90-100% control at 400 ppm),- (0-19% control at 400 ppm),- (0-19% control at 400 ppm),0,0,0,0,,,,,,,,,,
"Cc1ccc(CCNc2ccnc3ccccc23)cc1 [Example 19, N-[2-(4-methylphenyl)ethyl]-4-quinolinamine]",+ (20-89% control at 400 ppm),++ (90-100% control at 400 ppm),++ (90-100% control at 400 ppm),- (0-19% control at 400 ppm),+++ (90-100% control at 100 ppm),- (0-19% control at 400 ppm),- (0-19% control at 400 ppm),0,0,0,0,,,,,,,,,,
"Oc1ccc(CCNc2ccnc3c(F)cccc23)cc1 [Example 293, N-[2-(4-hydroxyphenyl)ethyl]-8-fluoro-4-quinoline]",,,,,,,,,,,,0 to 19,0 to 19,90 to 100,0 to 19,0 to 19,0,0,0,0,"mortality at 200 ppm [10, 11]: 0%; mortality at 400 ppm ([10]; foliar, foliar spray on squash): 0%; mortality at 12 ppm (corn rootworm; CRW rate 12.00 ppm): 0%; mortality at 24 ppm (corn rootworm): 0%"
"Fc1cccc2c(OCCCc3cccc(C(F)(F)F)c3)ccnc12 [Example 294, 8-fluoro-4-[3-[3-(trifluoromethyl)phenyl]propoxy]quinoline]",,,,,,,,,,,,0 to 19,0 to 19,0 to 19,0 to 19,0 to 19,0,0,0,0,"mortality at 200 ppm [10, 11]: 0%; mortality at 400 ppm ([10]; foliar, foliar spray on squash): 0%; mortality at 12 ppm (corn rootworm; CRW rate 12.00 ppm): 0%; mortality at 24 ppm (corn rootworm): 0%"
"Fc1cccc2c(OC3CCCCC3c3ccccc3)ccnc12 (centres unmarked) [Example 295, 8-fluoro-4-(2-phenylcyclohexyloxy)quinoline]",,,,,,,,,,,,20 to 89,20 to 89,20 to 89,0 to 19,90 to 100,0,0,0,0,"mortality at 200 ppm [10, 11]: 0%; mortality at 400 ppm ([10]; foliar, foliar spray on squash): 0%; mortality at 12 ppm (corn rootworm; CRW rate 12.00 ppm): 0%; mortality at 24 ppm (corn rootworm): 0%"
